Results taken from patent publication US8809352B2, “Sulfonamides as inhibitors of Bcl-2 family proteins for the treatments of cancer” (Novartis AG, priority 2009, dated 2014).

Target: BCL2 (Homo sapiens, UniProt P10415)
Experiment: Biacore SPR solution inhibition assay of BCL-2 binding to peptide derivatized sensor surfaces
Conditions: SPR competition; 56 nM BCL2 pre-equilibrated with compound one hour; biotinylated BAK, BAD and NOXA peptide surfaces; 25° C.
How it was run: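 Solution-competition SPR at 25 °C in HEPES pH 7.4 buffer with 1.25 mM DTT and 3% DMSO: compounds (6-point threefold series, 16 μM to 0.004 nM) pre-equilibrated 1 h with 56 nM BCL2, then injected over captured biotinylated BAK, BAD and NOXA peptide surfaces. Binding levels relative to BCL2-only controls gave % inhibition.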

Chain of BCL2 (P10415 whole entry): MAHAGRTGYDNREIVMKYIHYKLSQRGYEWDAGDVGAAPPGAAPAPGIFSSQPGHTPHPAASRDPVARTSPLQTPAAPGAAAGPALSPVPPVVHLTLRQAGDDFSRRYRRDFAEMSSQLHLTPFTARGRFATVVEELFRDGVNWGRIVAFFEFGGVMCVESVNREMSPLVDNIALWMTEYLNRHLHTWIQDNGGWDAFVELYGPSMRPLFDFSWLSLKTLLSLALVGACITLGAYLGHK

IC50 [µM]	SMILES
0.097	CC(c1ccccc1-c1ccc(Cl)cc1)N1CCC(N2CCc3c(ncnc3NS(=O)(=O)c3ccc(N[C@H](CCN4CCOCC4)CSc4ccccc4)c(S(=O)(=O)C(F)(F)F)c3)C2)CC1 (stereo partly drawn) [Example 42, N-(7-(1-(1-(4′chlorobiphenyl-2-yl)ethyl)piperidin-4-yl)-5,6,7,8-tetrahydropyrido[3,4-d]pyrimidin-4-yl)-4-((R)-4-morpholino-1-(phenylthio)butan-2-ylamino)-3-(trifluoromethylsulfonyl)benzenesulfonamide]
0.971	O=S(=O)(Nc1ncnc2c1CN(C1CCN(Cc3ccccc3-c3ccc(Cl)cc3)CC1)C2)c1ccc(N[C@H](CCN2CCOCC2)CSc2ccccc2)c(S(=O)(=O)C(F)(F)F)c1 [Example 72, (R)-N-(6-(1-((4′-chlorobiphenyl-2-yl)methyl)piperidin-4-yl)-6,7-dihydro-5H-pyrrolo[3,4-d]pyrimidin-4-yl)-4-(4-morpholino-1-(phenylthio)butan-2-ylamino)-3-(trifluoromethylsulfonyl)benzenesulfonamide]
0.035	CC(c1ccccc1-c1ccc(Cl)cc1)N1CCC(N2CCc3c(ncnc3NS(=O)(=O)c3ccc(N[C@H](CCN(C)C)CSc4ccccc4)c(S(=O)(=O)C(F)(F)F)c3)C2)CC1 (stereo partly drawn) [Example 51, N-(7-(1-(1-(4′-chlorobiphenyl-2-yl)ethyl)piperidin-4-yl)-5,6,7,8-tetrahydropyrido[3,4-d]pyrimidin-4-yl)-4-((R)-4-(dimethylamino)-1-(phenylthio)butan-2-ylamino)-3-(trifluoromethylsulfonyl)benzenesulfonamide]
0.08	CC(c1cc(F)ccc1-c1ccc(Cl)cc1)N1CCC(N2CCc3c(ncnc3NS(=O)(=O)c3ccc(N[C@H](CCN4CCN(C)CC4)CSc4ccccc4)c(S(=O)(=O)C(F)(F)F)c3)C2)CC1 (stereo partly drawn) [Example 35, N-(7-(1-(1-(4′-chloro-4-fluorobiphenyl-2-yl)ethyl)piperidin-4-yl)-5,6,7,8-tetrahydropyrido[3,4-d]pyrimidin-4-yl)-4-((R)-4-(4-methylpiperazin-1-yl)-1-(phenylthio)butan-2-ylamino)-3-(trifluoromethylsulfonyl)benzenesulfonamide]
